Source: ChEMBL document CHEMBL1146060, “Guanidinylated 2,5-dideoxystreptamine derivatives as anthrax lethal factor inhibitors” (Bioorg Med Chem Lett, 2006)

What follows are compounds tested against T1, Lethal factor (Bacillus anthracis, UniProt P15917) (assay: Inhibition of Bacillus anthracis LF by FRET assay). Settings: read-out: Ki app.
T1 sequence (P15917 whole entry): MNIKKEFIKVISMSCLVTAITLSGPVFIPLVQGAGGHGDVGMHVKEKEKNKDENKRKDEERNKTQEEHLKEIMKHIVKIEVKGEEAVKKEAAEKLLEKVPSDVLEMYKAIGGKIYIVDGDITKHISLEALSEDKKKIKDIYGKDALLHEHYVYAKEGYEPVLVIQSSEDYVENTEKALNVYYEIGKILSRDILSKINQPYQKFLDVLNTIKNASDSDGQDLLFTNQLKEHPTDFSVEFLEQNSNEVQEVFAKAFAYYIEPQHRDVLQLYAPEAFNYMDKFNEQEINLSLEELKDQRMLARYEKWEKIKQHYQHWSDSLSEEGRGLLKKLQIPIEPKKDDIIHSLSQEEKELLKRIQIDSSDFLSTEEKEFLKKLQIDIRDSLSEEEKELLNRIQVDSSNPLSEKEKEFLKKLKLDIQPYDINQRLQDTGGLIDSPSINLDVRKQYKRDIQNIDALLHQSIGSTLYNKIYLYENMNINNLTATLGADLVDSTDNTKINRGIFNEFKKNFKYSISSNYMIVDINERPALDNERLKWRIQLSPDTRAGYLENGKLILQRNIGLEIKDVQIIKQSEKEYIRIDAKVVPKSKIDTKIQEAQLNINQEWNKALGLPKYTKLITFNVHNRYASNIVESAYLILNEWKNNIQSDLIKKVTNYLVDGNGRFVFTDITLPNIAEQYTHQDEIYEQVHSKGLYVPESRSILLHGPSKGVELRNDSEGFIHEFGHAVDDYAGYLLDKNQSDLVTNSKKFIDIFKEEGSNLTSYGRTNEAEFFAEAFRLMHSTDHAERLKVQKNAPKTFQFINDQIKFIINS

Going from N=C(N)Nc1cc(NC(=N)N)c2ccccc2c1[C@H]1C[C@@H](O)[C@H](NC(=N)N)C[C@@H]1NC(=N)N to N=C(N)Nc1ccc([C@H]2C[C@@H](O)[C@H](NC(=N)N)C[C@@H]2NC(=N)N)c2ccccc12, the Ki rises from 10.7 µM to 31.4 µM (2.9-fold). The first binds more tightly here.

Compared with N=C(N)N[C@H]1C[C@@H](NC(=N)N)[C@H](O)C[C@@H]1c1ccc2[nH]c(N)nc2c1, N=C(N)Nc1ccc([C@H]2C[C@@H](O)[C@H](NC(=N)N)C[C@@H]2NC(=N)N)cc1 is 10-fold lower in Ki: 154 µM for the first, 14.9 µM for the second. The second binds more tightly here.

N=C(N)Nc1ccccc1NC(=O)O[C@H]1C[C@@H](O)[C@H](NC(=N)N)C[C@@H]1NC(=N)N and N=C(N)Nc1ccccc1[C@H]1C[C@@H](O)[C@H](NC(=N)N)C[C@@H]1NC(=N)N are within 1.5-fold of each other in Ki: 24.8 µM for the first, 30.6 µM for the second.

First: N=C(N)Nc1ccc(O[C@H]2C[C@@H](Oc3ccc(NC(=N)N)cc3NC(=N)N)[C@H](NC(=N)N)C[C@@H]2NC(=N)N)c(NC(=N)N)c1
Second: N=C(N)Nc1ccc([C@H]2C[C@@H](O)[C@H](NC(=N)N)C[C@@H]2NC(=N)N)c(NC(=N)N)c1
The Ki of the first is 9.2-fold lower: 0.065 µM for the first, 0.6 µM for the second. The first binds more tightly here.

Going from N=C(N)Nc1cccnc1[C@H]1C[C@@H](O)[C@H](NC(=N)N)C[C@@H]1NC(=N)N to N=C(N)Nc1ccc([C@H]2C[C@@H](O)[C@H](NC(=N)N)C[C@@H]2NC(=N)N)nc1, the Ki rises from 4.1 µM to 6.6 µM (1.6-fold). The first binds more tightly here.

Work on Cc1cc(NC(=O)O[C@@H]2C[C@H](Oc3ccc(NC(=N)N)cc3N=C(N)N)[C@@H](N=C(N)N)C[C@H]2N=C(N)N)ccc1F yielded a Ki of 0.5 µM.
